| SMILES | melting point |
| --- | --- |
| N[C@@H](Cc1c[nH]c2ccccc12)c1nc2c(C(F)(F)F)cccc2c(O)c1C(=O)Nc1nccs1 | 190 °C |
| COc1ccc(F)c(C=C2c3ccccc3CCc3ccccc32)c1 | 111 °C |
| CCOC(=O)/C=C(\c1ccc(F)cc1)c1cc(OC)c(OC)c(OC)c1 | 133 to 135 °C |
| CCN(CC)C(=O)c1ccc(C(=C2CC3CCC(C2)N3C)c2ccccc2)cc1 | 145 to 147 °C |
| COc1ccc(-c2coc3cc(OCC(O)CNC4CCCCC4)ccc3c2=O)cc1OC (stereo not given) | 70 to 71 °C |
| CCC(=O)N1N=C(c2ccc(N)c(C)c2)c2cc3c(cc2C[C@@H]1C)OCO3 | 176 to 178 °C |
| Nc1ccc(Oc2c(N3CCCC3)cc(C(=O)O)cc2S(N)(=O)=O)cc1 | 234 to 240 °C |
| CCCCCCCCCC(=O)c1cn(CCCC(=O)O)c2ccccc12 | 89 to 90 °C |
| Cn1cc(C#N)c(Nc2ccc(Cl)cc2[N+](=O)[O-])n1 | 205 °C |
| CCC1Cn2c(ncc(-c3nnn[nH]3)c2=O)-c2ccccc21 (stereo not given) | 254 to 258 °C |
| CN1C(=O)CCc2cc(N3C[C@H](C(N)=O)OC3=O)cc(F)c21 | 260 to 262 °C |
| CNc1ccc(C(=O)Nc2c(C)cccc2C)cn1 | 207 to 209 °C |
| COc1ccc(C(=O)CCC(=O)c2ccc(OC)c(OC)c2)cc1OC | 181 to 182 °C |
| COc1cc(Nc2ccccn2)ccc1C(N)=O | 226 to 227 °C |
| CC(C)=CCCC(C)=CCOc1ccc(OCC=C(C)CCC=C(C)C)c(C(=O)NCCc2ccncc2)c1 | 59.1 to 60.6 °C |
| COc1cccc(-c2cccc3c2CCn2cc(-c4ccccc4)nc2C3OC2CCN(C)CC2)c1 (stereo not given) | 93 °C |
| CCOC(=O)C1=C(C)NC(C#N)=C(C(=O)OCC)C1c1ccccc1C(F)(F)F (stereo not given) | 140 to 143 °C |

| SMILES | melting point |
| --- | --- |
| O=C(CCc1ccc(S(=O)(=O)N(C(=O)c2c3ccccc3nc3ccccc23)c2ccc3c(c2)OCCO3)cc1)ON1C(=O)CCC1=O | 140 °C |
| N#Cc1c(-c2ccc(Cl)cc2)[nH]c(Br)c1Cl | 262 to 263 °C |
| NCCNCCN1CCC(c2cn(-c3ccc(F)cc3)c3ccc(Cl)cc23)CC1 | 150 °C |
| N#Cc1cnc2sc(-c3ccc(C=O)cc3)cc2c1Nc1ccc2[nH]ccc2c1 | > 260 °C |
| CCOC(=O)c1c(O)cc(C(F)(F)F)nc1C(F)(F)F | 70 to 77 °C |
| O=c1[nH]c2ccc(C3CCN(Cc4ccc(-c5ccccc5)cc4)CC3)cc2[nH]1 | > 260 °C |
| COC(=O)c1ccc(C#CCCO)cc1 | 95.5 to 96 °C |
| O=C(NCc1ccccc1)c1cn2c(=O)n(Cc3ccc(Cl)c(Cl)c3)c(=O)cc2s1 | 216 to 217 °C |
| Oc1cc(N2CCCCC2)c(Cl)cc1CCBr | 115 to 116 °C |
| CCOc1nc(=O)n(C(=O)NC)s1 | 152 °C |
| N#Cc1cnc2cnc(F)cc2c1Oc1ccc(Cl)cc1F | 186 to 188 °C |
| Nc1cc(C(=O)O)cc(OCc2ccccc2)c1C(=O)c1ccc(Cl)cc1 | 196 to 197 °C |
| Cc1ccc2nc(-c3cc(C(F)(F)F)nn3-c3ccc(S(C)(=O)=O)cc3)sc2c1 | 202 to 204 °C |
| CS(=O)(=O)Nc1c(CC(=O)O)cccc1Oc1ccccc1Cl | 159 to 163 °C |
| CNc1ccc(-c2nc(C)c(-c3cccnc3)[nH]2)c(OC)c1 | 54 to 56 °C |
| CC(C)c1cc(-c2ccncc2)c(-c2ccc(F)cc2)n1CCC1CC(O)CC(=O)O1 (stereo not given) | 174 to 176 °C |
| CN[C@@H]1Cc2cccc3[nH]c(=S)n(c23)C1 | 210 to 213 °C |

Next, values leading:

| melting point | SMILES |
| --- | --- |
| 134 to 136 °C | Cc1nc2cnccc2n1-c1ccccc1 |
| 69 to 70 °C | CC(Cc1ccc(Br)cc1)C(=O)O (stereo not given) |
| 196 to 201 °C | COc1cc2c3c(n(C)c(=O)c2cc1OC)-c1cc2c(cc1C3=CCCCCl)OCO2 |
| 125 to 130 °C | CCOC(=O)c1cc2c(cn1)[nH]c1ccc(C(C)O)cc12 (stereo not given) |
| 88 to 90 °C | CC(C)Oc1ccc(S(=O)(=O)N2CCCC2=O)cc1 |
| 38 to 40 °C | OCCOc1cncc(Cl)c1 |
| 282 to 283 °C | Sc1nc(-c2ccc3c(c2)OCO3)c(-c2ccc3c(c2)OCO3)[nH]1 |
| 172 °C | Cc1cc(N)nc(CCC(=O)Nc2cc(I)cnc2N)c1 |
| 178 to 180 °C | N#Cc1cc(-c2nc3cncnc3s2)ccc1Sc1ccccc1F |
| 162 to 163 °C | CCS(=O)(=O)N[C@H](C(=O)NCc1ccc(OCC#Cc2ccc(Cl)cc2)c(OC)c1)C(C)C |
| 143 to 145 °C | N#Cc1ccc(-c2ccc(-c3ccc(Br)o3)o2)nc1 |
| 88 to 89 °C | COc1cc(CCc2c(C=O)ccc(OC)c2OC)cc(OC)c1 |
| 155 to 156 °C | NC(=O)CNC(=O)c1cccc(-c2cccc3oc(Cc4ccc(F)c(Cl)c4)cc23)c1 |
| 85 to 125 °C | CC1(C)CC(OC(=O)CCc2cc(-n3nc4ccc(S(=O)(=O)c5ccccc5)cc4n3)c(O)c(C(C)(C)C)c2)CC(C)(C)N1 |
| 151 to 152 °C | NC(=O)N(O)CC1=NOC(c2ccc(F)cc2)C1 (stereo not given) |
| 225 to 226 °C | Cn1c(=O)c(NC(=O)Nc2ccc(F)cc2F)c(-c2ccccc2Cl)c2cccnc21 |
| 165 °C | CCOc1ccc2c(c1)n(C1CCOCC1)c(=O)n2S(=O)(=O)c1ccc(C(=O)OC)cc1OC |
| 173 to 178 °C | CCn1c(-c2cc(OC)c(OC)cc2S(N)(=O)=O)cc(=Nc2c(C)cc(C)c(S(N)(=O)=O)c2C)n(C)c1=O |

| melting point | SMILES |
| --- | --- |
| 140 to 142 °C | Cc1cc(C)c(C)c(COc2cccc(-c3ccoc3C(=O)NNC(=O)c3ccc(O)c([N+](=O)[O-])c3)c2)c1C |
| 202 to 203 °C | OCCNc1nc(NCc2ccccc2)c2ncc(Nc3ncncn3)cc2n1 |
| 108 °C | COC(=O)C1CCC(C)(C(=O)c2ccc(OC)cc2OC)C1(C)C (stereo not given) |
| 228 °C | O=C1CCC2C=C(c3cccnc3)C(F)=CC2N1 (stereo not given) |
| 203 to 205 °C | Cc1nn(-c2ccccn2)c2nc3ccccc3c(N3CCOCC3)c12 |
| 84 to 86 °C | CCCC[C@@H](C)C[C@@H](CC(=O)OC(C)(C)C)C(=O)N1C(=O)O[C@@H](c2ccccc2)[C@H]1C |
| 175 °C | COc1ccc(CN(C)CCOc2ccc(NC(=O)c3cccc4c(=O)cc(-c5ccccc5)[nH]c34)cc2)cc1OC |
| 134 to 135 °C | CCOC(=O)c1cc2c(C)c(C)cc(N(CC)S(=O)(=O)c3cccs3)c2[nH]1 |
| 167 to 170 °C | Cc1cnc2c(c1)S(=O)(=O)N(Cc1ccccc1)C2=O |
| 170 to 172 °C | CC(C)CCNc1nc(-c2ccccc2)c(-c2ccnc(Nc3ccccc3)n2)s1 |
| 240 to 242 °C | CC(C)=CCCn1c(=O)sc2c(=O)[nH]c(N)nc21 |
| 182 to 184 °C | O=C(CNC(=O)C(Cc1ccccc1)NC(=O)C1CCCN1)Oc1c(Cl)c(Cl)c(Cl)c(Cl)c1Cl (stereo not given) |
| 227 to 229 °C | CCCC(CCC)Nc1cc(C(=O)O)ccc1N1C(=O)CCC1(CO)CO |
| 122 to 125 °C | CCOc1ccc(C(C)=O)cc1C(=O)O |
| 110 to 112 °C | COC(=O)c1nc(Cl)nc(NCc2ccco2)c1Cl |
| 123 to 125 °C | O=C(c1ccc(Cl)cc1)c1cccc(CBr)c1 |
| 205 to 206 °C | Nc1nc(-c2cc(Cl)ccc2Cl)nc(N2CC=CC2)n1 |
| 144 to 146 °C | COc1ccc(C#CC(C)N(O)C(N)=O)cc1 (stereo not given) |
